{"source": "patent US20120207722A1", "about": "“Use Of Adipose Tissue Cells For Initiating The Formation Of A Functional Vascular Network” (CENTRE NATIONAL DE LA RECHERCHE SCIENTIFIQUE, priority 2003, published 2012)", "system": "hind limb rendered ischemic", "test": "Hind limb ischemia model, SVF-CULT cells with modified redox state (antimycin and/or PDTC)", "type": "in vivo, mouse", "conditions": "daily i.p. injection (50 μl at 40 nM) after the injection of the SVF-CULT cells", "description": "The angiogenic potential of the SVF-CULT cells treated, in vitro, with antimycin (40 nM) and/or pyrrolidine dithiocarbamate (PDTC; 0.5 mM) two days before the injection, was analyzed in the model of the mouse with a hind limb rendered ischemic, as described in Example 1. Furthermore, after the injection of the SVF-CULT cells treated with antimycin alone, by adding antimycin to the culture medium, or not treated, the mice were or were not given a daily i.p. injection of antimycin (50 μl at 40 nM). The mice treated similarly with PDTC alone or in combination with antimycin receive no treatment after the injection of cells.\nThe angiogenic potential of the nontreated SVF-CULT cells, in mice not treated after the injection of the cells, was analyzed in parallel, by way of comparison. The control group was given an injection of ethanol, under the same conditions.\nThe neovascularization process was analyzed by microangiography and, optionally, by laser Doppler, 8 days after femoral occlusion. The statistical analysis was carried out by means of an ANOVA-type variance test for comparing each parameter (n=5 for each group). A Bonferroni t test subsequently made it possible to identify the groups causing these differences. A value of P<0.05 is considered to be significant.", "data": [{"substance": "antimycin", "values": [{"measurement": "effect on revascularization when administered directly to the animal", "value": "no effect"}]}]}
